Assay results as given in PubChem BioAssay (NCI).
Several values for one entry are separate records, joined by “and”; a condition that tells them apart may be missing. Identical values can stand only once.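 Five compound concentrations were applied to cells in 96-well plates for 48 hours; endpoints were derived by simple linear interpolation of the resulting dose-response curve. Here, GI50 denotes the concentration required for 50% inhibition of growth. TGI marks complete inhibition of growth.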

Assays:
Assay in all cases: NCI tumour cell line growth inhibition, 48 h
A549 NSCLC = tested on: A549 NSCLC
CCRF-CEM leukemia = tested on: CCRF-CEM leukemia
OVCAR-3 ovarian = tested on: OVCAR-3 ovarian
RPMI-8226 leukemia = tested on: RPMI-8226 leukemia
RXF 393 renal = tested on: RXF 393 renal
SK-MEL-28 melanoma = tested on: SK-MEL-28 melanoma
SK-MEL-5 melanoma = tested on: SK-MEL-5 melanoma
SK-OV-3 ovarian = tested on: SK-OV-3 ovarian
U251 CNS = tested on: U251 CNS
UACC-62 melanoma = tested on: UACC-62 melanoma

Row | SMILES | GI50 (A549 NSCLC) [nM] | TGI (A549 NSCLC) | GI50 (CCRF-CEM leukemia) [nM] | TGI (CCRF-CEM leukemia) [nM] | GI50 (OVCAR-3 ovarian) [nM] | TGI (OVCAR-3 ovarian) | GI50 (RPMI-8226 leukemia) [nM] | TGI (RPMI-8226 leukemia) | GI50 (RXF 393 renal) [nM] | TGI (RXF 393 renal) | GI50 (SK-MEL-28 melanoma) [nM] | TGI (SK-MEL-28 melanoma) | GI50 (SK-MEL-5 melanoma) [nM] | TGI (SK-MEL-5 melanoma) | GI50 (SK-OV-3 ovarian) [nM] | TGI (SK-OV-3 ovarian) | GI50 (U251 CNS) [nM] | TGI (U251 CNS) | GI50 (UACC-62 melanoma) [nM] | TGI (UACC-62 melanoma)
1 | Cc1ccc(C(=O)Nc2ccccc2C(=O)N/N=C(\c2ccccc2)c2ccccn2)cc1 | 703 | > 100000 nM | 167 | > 100000 | 211 | > 100000 nM | 1130 | > 100000 nM | 1530 | > 100000 nM | 597 | > 100000 nM | 271 | 1150 nM | 478 | > 100000 nM | 485 | > 100000 nM | 360 | 6700 nM
2 | ClC1=C(Cl)C(Cl)=C(Cl)C1=Cc1ccc(Cl)cc1Cl | 1700 | 4520 nM | 352 | 3980 | 274 | 857 nM | 355 | 1990 nM | 215 | 477 nM | 567 | 2800 nM | 1040 | 2260 nM | 1740 | 5980 nM | 390 | 1490 nM | 192 | 495 nM
3 | O=C1/C(=C/c2ccc(C(F)(F)F)cc2)COc2ccc(O)cc21 | 11800 | 24900 nM | 228 | 1420 | 1700 | 3090 nM | 290 | 885 nM | 1740 | 3480 nM | 1790 | 3800 nM | 1970 | 4380 nM | 16200 | 29700 nM | 1660 | 3060 nM | 2360 | 6840 nM
4 | CCN1CCN(c2nc(C)cc(N(CCCNc3ccnc4cc(Cl)ccc34)Cc3ccco3)n2)CC1 | 4510 | 16500 nM | 3510 | 12200 | 4290 | 20300 nM | 2310 | 5770 nM | 1980 | 4230 nM | 1820 | 3600 nM | 1810 | 3300 nM | 7820 | 30700 nM | 2410 | 6260 nM | 1970 | 3970 nM
5 | c1cc(C2N3CCCN2CC3)ccn1 (stereo not drawn) | – | > 100000 nM | – | > 100000 | – | > 100000 nM | – | 71000 nM | – | > 100000 nM | – | > 100000 nM | – | > 100000 nM | – | > 100000 nM | – | > 100000 nM | – | > 100000 nM
6 | CCCCCCCCCCC(CN(CC)CC)C(O)c1ccccc1 (stereo not drawn) | 2490 | 5410 nM | 1820 | 4890 | 1990 | 3780 nM | 2050 | 4880 nM | 1500 | 3050 nM | 1700 | 3160 nM | 1480 | 2880 nM | 2780 | 9520 nM | 1860 | 3560 nM | 1780 | 3460 nM
7 | COc1cccc2cc(N(C)c3nc(C)nc4ccsc34)ccc12 | < 10 | 16000 nM | < 10 | > 100000 | < 10 | – | < 10 | 6020 nM | < 10 | 16400 nM | 1530 | 20000 nM | < 10 | < 10 nM | < 10 | 35800 nM | < 10 | 15100 nM | < 10 | 12500 nM
8 | O/N=C1/C(=C/c2ccc(Cl)cc2)CCCC1C(NO)c1ccc(Cl)cc1 (stereo not drawn) | – | 57400 nM | – | 42600 | – | 31000 nM | – | 44400 nM | – | 29600 nM | – | 22500 nM | – | 66200 nM | – | > 100000 nM | – | 50800 nM | – | > 100000 nM
9 | C=C1C(=O)O[C@H]2[C@H]1CC/C(COC(=O)NCc1cccc(OC)c1)=C\CC[C@@]1(C)O[C@@H]21 | 3100 | 12800 nM | 1140 | 4760 | 1600 | 3290 nM | 1980 | 6400 nM | 1380 | 2840 nM | 1840 | 3820 nM | 1640 | 3200 nM | 14900 | 28200 nM | 3650 | 14900 nM | 1910 | 4240 nM
10 | Cc1cccc2cc3ccc4ccccc4c3cc12 | – | > 100000 nM | – | 39300 | – | > 100000 nM | – | > 100000 nM | – | > 100000 nM | – | > 100000 nM | – | 52600 nM | – | > 100000 nM | – | > 100000 nM | – | > 100000 nM
11 | CN1CCN(c2ccc([N+](=O)[O-])c3no[n+]([O-])c23)CC1 | 385 | 3530 nM and 2060 nM | – | 582 | 241 | 1290 nM and 753 nM | 436 | 795 nM and 2430 nM | 443 | 1570 nM and 1680 nM | 991 | 5590 nM and 2670 nM | 1040 | 2910 nM and 2510 nM | 870 | 1730 nM and 2120 nM | 189 | 1410 nM and 618 nM | 471 | 2640 nM and 1840 nM
